For 22 compounds, IC50 results are on record in patent publication US10472356B2, “Bicyclic ketone sulfonamide compounds” (AMGEN INC., priority 2015, dated 2019).

T1 sequence (Q15858 whole entry): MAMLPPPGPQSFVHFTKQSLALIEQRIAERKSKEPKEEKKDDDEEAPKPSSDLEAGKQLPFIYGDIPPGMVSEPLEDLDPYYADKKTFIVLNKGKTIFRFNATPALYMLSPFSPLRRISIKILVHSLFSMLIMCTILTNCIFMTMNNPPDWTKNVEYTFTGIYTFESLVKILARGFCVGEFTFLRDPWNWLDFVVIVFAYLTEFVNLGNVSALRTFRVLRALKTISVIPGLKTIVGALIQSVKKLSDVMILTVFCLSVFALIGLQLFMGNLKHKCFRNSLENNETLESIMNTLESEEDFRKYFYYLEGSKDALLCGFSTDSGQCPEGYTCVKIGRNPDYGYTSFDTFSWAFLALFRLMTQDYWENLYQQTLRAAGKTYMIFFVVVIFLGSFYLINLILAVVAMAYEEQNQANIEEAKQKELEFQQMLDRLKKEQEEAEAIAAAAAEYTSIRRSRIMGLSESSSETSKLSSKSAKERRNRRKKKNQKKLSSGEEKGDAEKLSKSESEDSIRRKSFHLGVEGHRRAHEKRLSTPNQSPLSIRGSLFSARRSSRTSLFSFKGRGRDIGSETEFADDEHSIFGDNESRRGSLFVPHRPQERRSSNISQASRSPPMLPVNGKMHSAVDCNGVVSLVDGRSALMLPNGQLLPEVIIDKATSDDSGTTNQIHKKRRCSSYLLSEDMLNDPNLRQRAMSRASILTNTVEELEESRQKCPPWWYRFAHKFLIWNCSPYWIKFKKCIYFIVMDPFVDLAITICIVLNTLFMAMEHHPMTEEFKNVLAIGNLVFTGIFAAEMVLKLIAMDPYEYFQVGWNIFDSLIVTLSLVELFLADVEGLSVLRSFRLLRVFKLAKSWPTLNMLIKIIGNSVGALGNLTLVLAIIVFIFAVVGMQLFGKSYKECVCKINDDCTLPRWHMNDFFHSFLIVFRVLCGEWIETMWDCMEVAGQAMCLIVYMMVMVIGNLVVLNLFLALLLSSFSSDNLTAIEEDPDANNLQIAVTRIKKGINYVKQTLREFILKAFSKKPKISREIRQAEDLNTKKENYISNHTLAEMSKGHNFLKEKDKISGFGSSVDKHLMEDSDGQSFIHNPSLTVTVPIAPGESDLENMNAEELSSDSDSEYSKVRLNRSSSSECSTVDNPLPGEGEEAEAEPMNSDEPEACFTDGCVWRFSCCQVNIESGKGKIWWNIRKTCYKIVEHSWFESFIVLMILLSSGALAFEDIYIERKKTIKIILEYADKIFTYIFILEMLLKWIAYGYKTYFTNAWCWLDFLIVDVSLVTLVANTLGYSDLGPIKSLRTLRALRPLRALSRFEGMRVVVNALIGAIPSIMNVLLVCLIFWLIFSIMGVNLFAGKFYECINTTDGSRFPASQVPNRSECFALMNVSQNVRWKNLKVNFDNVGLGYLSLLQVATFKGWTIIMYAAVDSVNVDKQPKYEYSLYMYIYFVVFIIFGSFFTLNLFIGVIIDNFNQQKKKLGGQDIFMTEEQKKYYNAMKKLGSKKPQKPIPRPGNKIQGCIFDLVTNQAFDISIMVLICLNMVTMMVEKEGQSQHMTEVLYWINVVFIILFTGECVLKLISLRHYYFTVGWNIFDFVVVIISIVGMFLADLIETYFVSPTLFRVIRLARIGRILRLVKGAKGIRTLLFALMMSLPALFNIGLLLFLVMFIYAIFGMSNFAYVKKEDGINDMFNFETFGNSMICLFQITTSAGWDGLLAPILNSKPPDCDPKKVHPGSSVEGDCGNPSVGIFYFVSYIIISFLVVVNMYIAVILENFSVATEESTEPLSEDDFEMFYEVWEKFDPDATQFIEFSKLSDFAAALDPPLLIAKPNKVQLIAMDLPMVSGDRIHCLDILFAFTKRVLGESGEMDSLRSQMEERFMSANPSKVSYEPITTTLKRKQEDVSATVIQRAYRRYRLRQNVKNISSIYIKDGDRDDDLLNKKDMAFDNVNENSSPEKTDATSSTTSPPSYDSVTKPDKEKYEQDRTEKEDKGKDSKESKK

One assay addresses T1, human Nav1.7 (Homo sapiens, UniProt Q15858).
T1 construct: expressed in transfected cells; host or cells: HEK293
The assay can be described thus: Nav 1.7 In Vitro PatchXpress (PX) Assay. The format is cell-based. To be noted: HEK 293 cells stably transfected with human Nav1.7; PatchXpress whole cell voltage clamp; partially inactivated state (holding potential yielding 20 to 50% inactivation); read-out: hNav1.7 PX IC50. As to the method:
Nav 1.7 In Vitro PatchXpress (PX) Assay
HEK 293 cells stably transfected with human Nav1.7 were recorded in whole cell voltage clamp mode with the PatchXpress automated electrophysiology system (Molecular Devices, LLC, Sunnyvale, Calif.). Compound effects were measured on a partially inactivated state of the sodium channel. Cells were clamped to a holding potential yielding 20 to 50% inactivation. To elicit sodium current, channels were activated by pulsing to −10 mV for 20 msec. This voltage protocol was repeated at a rate of 0.1 Hz throughout the experiment. A single concentration of test compound was applied to cells for a duration of 3 minutes. Peak sodium current was measured at the end of the compound addition period to determine percent inhibition. Three to five cells were tested per concentration, and IC50 curves were fitted to percent inhibition as a function of concentration.
`COc1cc(-c2cc(F)cc(F)c2)c(F)cc1-n1c2c(ccc1=O)CN(S(=O)(=O)Nc1ccon1)CC2` (racemic) [Example 25-(Rac), (Rac)-N-3-isoxazolyl-2-oxo-1-(2,3′,5′-trifluoro-5-methoxy-4-biphenylyl)-1,5,7,8-tetrahydro-1,6-naphthyridine-6(2H)-sulfonamide]: the IC50 is 209 nM.

Take `COc1cc(-c2cc(F)cc(Cl)c2)c(F)cc1-n1c2c(ccc1=O)CN(S(=O)(=O)Nc1ccc(F)cn1)CC2` (single isomer, unassigned) [Example 12-M, M-1-(3′-chloro-2,5′-difluoro-5-methoxy-4-biphenylyl)-N-(5-fluoro-2-pyridinyl)-2-oxo-1,5,7,8-tetrahydro-1,6-naphthyridine-6(2H)-sulfonamide]: the IC50 stood at 9340 nM.

On to `COc1cc(-c2cccc(C(F)(F)F)c2)c(F)cc1-n1c2c(ccc1=O)CN(S(=O)(=O)Nc1cccnn1)CC2` [Example 45, P-1-(2-fluoro-5-methoxy-3′-(trifluoromethyl)-4-biphenylyl)-2-oxo-N-3-pyridazinyl-1,5,7,8-tetrahydro-1,6-naphthyridine-6(2H)-sulfonamide], for which the IC50 worked out at 29.8 nM.

Another assay concerns the target T1, human Nav1.7. The assay can be described thus: Nav 1.7 IWB In Vitro Assay (IonWorks Barracuda). The format is cell-based. As to conditions: HEK293 cells stably transfected with human Nav 1.7; IonWorks Barracuda population patch-clamp; cells clamped to −20 mV for 4 minutes with compound; 26th pulse; read-out: hNav1.7 IWB IC50. As to the method: Nav 1.7 IWB In Vitro Assay
HEK293 cells stably transfected with human Nav 1.7 were recorded in population patch-clamp mode with the IonWorks© Barracuda (IWB) automated electrophysiology system (Molecular Devices, LLC, Sunnyvale, Calif.). From a holding potential of −110 mV, sodium currents were elicited by a train of 26 depolarizations of 150 ms duration to −20 mV at a frequency of 5 Hz. Cells were then clamped to −20 mV for a period of 4 minutes in the presence of a single concentration of test compound. Following this compound incubation period, cells were clamped to −110 mV for three seconds to recover unbound channels and put through the same 26 pulse voltage protocol as above. Peak inward current during the 26th pulse to −20 mV in the presence of compound was divided by the peak inward current evoked by the 26th pulse to −20 mV in the absence of compound to determine percent inhibition. Concentration-response curves of percent inhibition as a function of concentration were generated to calculate IC50 values.
Consider `COc1cc(-c2cc(OC)c(-n3c4c(ccc3=O)CN(S(=O)(=O)Nc3ccon3)CC4)cc2F)ccc1C` (single isomer, unassigned) [Example 58-M, M-1-(2-fluoro-3′,5-dimethoxy-4′-methyl-4-biphenylyl)-N-3-isoxazolyl-2-oxo-1,5,7,8-tetrahydro-1,6-naphthyridine-6(2H)-sulfonamide], for which the IC50 was 1480 nM.

As to `COc1cc(Br)c(F)cc1-n1c2c(ccc1=O)CN(S(=O)(=O)Nc1ccncn1)CC2` (single isomer, unassigned) [Preparation 8f-P, P-1-(4-bromo-5-fluoro-2-methoxyphenyl)-2-oxo-N-(pyrimidin-4-yl)-1,2,7,8-tetrahydro-1,6-naphthyridine-6(5H)-sulfonamide], the IC50 turned out to be 193 nM.

For the compound `COc1cc(-c2cc(F)cc(F)c2)c(F)cc1-n1c2c(ccc1=O)CN(S(=O)(=O)Nc1cccc(F)n1)CC2` (single isomer, unassigned) [Example 14-M, M-N-(6-fluoro-2-pyridinyl)-2-oxo-1-(2,3′,5′-trifluoro-5-methoxy-4-biphenylyl)-1,5,7,8-tetrahydro-1,6-naphthyridine-6(2H)-sulfonamide], the 50% inhibitory concentration (IC50) was 452 nM.

For the compound `COc1cc(Br)c(F)cc1-n1c2c(ccc1=O)CN(S(=O)(=O)Nc1cccnn1)CC2` (racemic) [Preparation 8b, 1-(4-bromo-5-fluoro-2-methoxyphenyl)-2-oxo-N-3-pyridazinyl-1,5,7,8-tetrahydro-1,6-naphthyridine-6(2H)-sulfonamide], the half-maximal inhibitory concentration (IC50) was 1120 nM.

Regarding `COc1cc(-c2ccc(Cl)c(C)c2)c(F)cc1-n1c2c(ccc1=O)CN(S(=O)(=O)Nc1cccnn1)CC2` (single isomer, unassigned) [Example 33-M, M-1-(4′-chloro-2-fluoro-5-methoxy-3′-methyl-4-biphenylyl)-2-oxo-N-3-pyridazinyl-1,5,7,8-tetrahydro-1,6-naphthyridine-6(2H)-sulfonamide], the half-inhibitory concentration (IC50) is above 10000 nM.

As for `COc1cc(Br)c(F)cc1-n1c2c(ccc1=O)CN(S(=O)(=O)Nc1ccncn1)CC2` (single isomer, unassigned) [Preparation 8f-M, M-1-(4-bromo-5-fluoro-2-methoxyphenyl)-2-oxo-N-(pyrimidin-4-yl)-1,2,7,8-tetrahydro-1,6-naphthyridine-6(5H)-sulfonamide], the half-inhibitory concentration (IC50) was above 25000 nM.

With `COc1cc(-c2cccc(C(F)(F)F)c2)c(F)cc1-n1c2c(ccc1=O)CN(S(=O)(=O)Nc1ccon1)CC2` (single isomer, unassigned) [Example 16-M, M-1-(2-fluoro-5-methoxy-3′-(trifluoromethyl)-4-biphenylyl)-N-3-isoxazolyl-2-oxo-1,5,7,8-tetrahydro-1,6-naphthyridine-6(2H)-sulfonamide], the IC50 is 720 nM.

For `COc1cc(Br)c(Cl)cc1-n1c2c(ccc1=O)CN(S(=O)(=O)Nc1ccon1)CC2` (racemic) [Preparation 8c, 1-(4-bromo-5-chloro-2-methoxyphenyl)-N-3-isoxazolyl-2-oxo-1,5,7,8-tetrahydro-1,6-naphthyridine-6(2H)-sulfonamide], the 50% inhibitory concentration (IC50) came out at 2880 nM.

`COc1cc(-c2cc(F)cc(Cl)c2)ccc1-n1c2c(ccc1=O)CN(S(=O)(=O)Nc1ccon1)CC2` (single isomer, unassigned) [Example 7-M, M-1-(3′-chloro-5′-fluoro-3-methoxy-4-biphenylyl)-N-3-isoxazolyl-2-oxo-1,5,7,8-tetrahydro-1,6-naphthyridine-6(2H)-sulfonamide]: the IC50 was determined as 1210 nM.

In the case of `COc1cc(Br)c(F)cc1-n1c2c(ccc1=O)CN(S(=O)(=O)Nc1ncccn1)CC2` (racemic) [Preparation 8a, 1-(4-bromo-5-fluoro-2-methoxyphenyl)-2-oxo-N-2-pyrimidinyl-1,5,7,8-tetrahydro-1,6-naphthyridine-6(2H)-sulfonamide], the IC50 amounted to 4240 nM.

On to `COc1cc(-c2cc(F)cc(Cl)c2)ccc1-n1c2c(ccc1=O)CN(S(=O)(=O)Nc1cccnn1)CC2` (single isomer, unassigned) [Example 8-M, M-1-(3′-chloro-5′-fluoro-3-methoxy-4-biphenylyl)-2-oxo-N-3-pyridazinyl-1,5,7,8-tetrahydro-1,6-naphthyridine-6(2H)-sulfonamide], for which the IC50 amounted to 2950 nM.

With `COc1cc(Br)c(Cl)cc1-n1c2c(ccc1=O)CN(S(=O)(=O)Nc1ccon1)CC2` (single isomer, unassigned) [Preparation 8c-P, P-1-(4-bromo-5-chloro-2-methoxyphenyl)-N-3-isoxazolyl-2-oxo-1,5,7,8-tetrahydro-1,6-naphthyridine-6(2H)-sulfonamide], the IC50 worked out at 768 nM.

As for `COc1cc(C#CC2CCCC2)c(F)cc1-n1c2c(ccc1=O)CN(S(=O)(=O)Nc1ccon1)CC2` (single isomer, unassigned) [Example 34-M, M-1-(4-(cyclopentylethynyl)-5-fluoro-2-methoxyphenyl)-N-3-isoxazolyl-2-oxo-1,5,7,8-tetrahydro-1,6-naphthyridine-6(2H)-sulfonamide], the IC50 was found to be 9720 nM.

As for `COc1cc(Br)c(Cl)cc1-n1c2c(ccc1=O)CN(S(=O)(=O)Nc1ccon1)CC2` (single isomer, unassigned) [Preparation 8c-M, M-1-(4-bromo-5-chloro-2-methoxyphenyl)-N-3-isoxazolyl-2-oxo-1,5,7,8-tetrahydro-1,6-naphthyridine-6(2H)-sulfonamide], the IC50 is above 25000 nM.

In the case of `COc1cc(CCC(F)(F)F)c(Cl)cc1-n1c2c(ccc1=O)CN(S(=O)(=O)Nc1cccnn1)CC2` (single isomer, unassigned) [Example 96-M, M-1-(5-chloro-2-methoxy-4-(3,3,3-trifluoropropyl)phenyl)-2-oxo-N-(pyridazin-3-yl)-1,2,7,8-tetrahydro-1,6-naphthyridine-6(5H)-sulfonamide], the IC50 was found to be 856 nM.

In the case of `COc1cc(-c2ccc(Cl)c(C)c2)c(F)cc1-n1c2c(ccc1=O)CN(S(=O)(=O)Nc1ccon1)CC2` (single isomer, unassigned) [Example 24-M, M-1-(4′-chloro-2-fluoro-5-methoxy-3′-methyl-4-biphenylyl)-N-3-isoxazolyl-2-oxo-1,5,7,8-tetrahydro-1,6-naphthyridine-6(2H)-sulfonamide], the IC50 worked out at 462 nM.

On to `COc1cc(-c2cc(F)cc(Cl)c2)c(F)cc1-n1c2c(ccc1=O)CN(S(=O)(=O)Nc1cc(C)ncn1)CC2` (single isomer, unassigned) [Example 4-M, M-1-(3′-chloro-2,5′-difluoro-5-methoxy-4-biphenylyl)-N-(6-methyl-4-pyrimidinyl)-2-oxo-1,5,7,8-tetrahydro-1,6-naphthyridine-6(2H)-sulfonamide], for which the IC50 came to 8300 nM.

For `COc1cc(-c2cc(F)cc(Cl)c2)c(F)cc1-n1c2c(ccc1=O)CN(S(=O)(=O)Nc1ncns1)CC2` (single isomer, unassigned) [Example 5-M, M-1-(3′-chloro-2,5′-difluoro-5-methoxy-4-biphenylyl)-2-oxo-N-1,2,4-thiadiazol-5-yl-1,5,7,8-tetrahydro-1,6-naphthyridine-6(2H)-sulfonamide], the IC50 turned out to be 726 nM.

For `COc1cc(-c2cc(F)cc(Cl)c2)c(F)cc1-n1c2c(ccc1=O)CN(S(=O)(=O)Nc1ccnc(C)n1)CC2` (single isomer, unassigned) [Example 6-M, M-1-(3′-chloro-2,5′-difluoro-5-methoxy-4-biphenylyl)-N-(2-methyl-4-pyrimidinyl)-2-oxo-1,5,7,8-tetrahydro-1,6-naphthyridine-6(2H)-sulfonamide], the IC50 amounted to 8820 nM.
